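Values below derive from 48-hour exposures of cells grown in 96-well plates, with endpoints linearly interpolated between the two concentrations bracketing the appropriate inhibition level. GI50 = concentration required for 50% inhibition of growth. The concentration for full growth arrest is given as TGI.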
Experiments:
Assay in all cases: DTP human tumour cell line panel, 48 h
HCC-2998 colon = system: HCC-2998 colon
HOP-92 NSCLC = system: HOP-92 NSCLC
IGROV1 ovarian = system: IGROV1 ovarian
LOX IMVI melanoma = system: LOX IMVI melanoma
OVCAR-5 ovarian = system: OVCAR-5 ovarian
OVCAR-8 ovarian = system: OVCAR-8 ovarian
RXF 393 renal = system: RXF 393 renal
SW-620 colon = system: SW-620 colon
TK-10 renal = system: TK-10 renal
UACC-62 melanoma = system: UACC-62 melanoma

SMILES | GI50 (HCC-2998 colon) [µM] | TGI (HCC-2998 colon) [µM] | GI50 (HOP-92 NSCLC) [nM] | TGI (HOP-92 NSCLC) [µM] | GI50 (IGROV1 ovarian) [nM] | TGI (IGROV1 ovarian) [µM] | GI50 (LOX IMVI melanoma) [nM] | TGI (LOX IMVI melanoma) [µM] | GI50 (OVCAR-5 ovarian) [µM] | TGI (OVCAR-5 ovarian) [µM] | GI50 (OVCAR-8 ovarian) [µM] | TGI (OVCAR-8 ovarian) [µM] | GI50 (RXF 393 renal) [nM] | TGI (RXF 393 renal) [µM] | GI50 (SW-620 colon) [nM] | TGI (SW-620 colon) [µM] | GI50 (TK-10 renal) [µM] | TGI (TK-10 renal) [µM] | GI50 (UACC-62 melanoma) [µM] | TGI (UACC-62 melanoma) [µM]
CN1CCN(Cc2ccc(NC(=O)c3cncc(C#Cc4cnc(N)c5cnccc45)c3)cc2C(F)(F)F)CC1 | 0.234 | 7.12 | 72.5 | 0.287 | 141 | 0.649 | 74.5 | 0.26 | 0.162 | 4.39 | 0.253 | 8.09 | 147 | 0.565 | 182 | 2.62 | 0.436 | 6.73 | 0.0782 | 0.282
O=C(/C=C/OC(=O)c1cccc(Cl)c1)c1ccc(Cl)cc1 | 29.3 | > 100 | 33500 | > 100 | > 46800 | > 100 | 36500 | > 100 | > 100 | > 100 | 46.4 | > 100 | > 100000 | > 100 | 29400 | > 82 | 32.7 | > 100 | > 80.8 | > 100
COc1cc(/C=C/C(=O)c2c(C)nc3ccccc3c2C)ccc1OCCCN1CCN(C(=O)c2ccco2)CC1 | 10.4 | 22.1 | – | 4.74 | 6700 | 24.6 | 7750 | 21.5 | 18.1 | 32 | 8.43 | 42.4 | 2800 | 10.2 | 6030 | 19.2 | 15.3 | 30 | 8.39 | 21.7
CCCN1CCC(c2ccc(Nc3nc(Nc4cc(F)ccc4C(N)=O)c4cc[nH]c4n3)c(OC)c2)CC1 | 2.53 | 5.5 | 5.86 | 0.126 | 1870 | 7.44 | 365 | 5.84 | 2.78 | 9.48 | 2.23 | 7.79 | 2890 | 6.31 | 99 | 3.04 | 1.07 | 6.33 | 3.58 | 7.44
CCn1ccc(NS(=O)(=O)c2ccc(N)cc2)nc1=O | > 100 | > 100 | > 100000 | > 100 | > 100000 | > 100 | > 100000 | > 100 | > 100 | > 100 | > 100 | > 100 | > 100000 | > 100 | > 100000 | > 100 | > 100 | > 100 | > 100 | > 100
CSCCC(C(=O)O)N(CC1(O)OCC(O)C(O)C1O)N=O (centres undefined) | – | > 100 | – | > 100 | – | > 100 | – | > 100 | – | > 100 | – | > 100 | – | > 100 | – | > 100 | – | > 100 | – | > 100
CCOC(=O)C(C(O)c1ccc([N+](=O)[O-])cc1)P(=O)(OCC)OCC (centres undefined) | – | > 100 | – | 99.5 | – | > 100 | – | > 100 | – | > 100 | – | > 100 | – | > 100 | – | > 100 | – | > 100 | – | > 100
COc1c2c(cc3c1C(=O)Cc1ccc4c(c1CN(C)CC3)OCO4)OCO2 | – | > 100 | – | > 100 | – | > 100 | – | > 100 | – | > 100 | – | > 100 | – | > 100 | – | > 100 | – | > 100 | – | > 100
COc1ccc2c(c1OC(C)=O)C1=CC(=O)CCC13CCNC3C2 (centres undefined) | – | > 100 | – | > 100 | – | > 100 | – | > 100 | – | > 100 | – | > 100 | – | > 100 | – | > 100 | – | > 100 | – | > 100
CN(C)CCOC(=O)Nc1nc2ccc(Sc3ccccc3)cc2[nH]1 | 3.31 | 14.1 | 1330 | 6.73 | 6320 | 27.6 | 4260 | 15.9 | 4.22 | 21.1 | 4.26 | 26.8 | 1850 | 6.6 | 3690 | 16.3 | 11 | 25.5 | 3.74 | 16.7
CN(C)c1ccc(N=C2C=CC(=O)c3ccccc32)cc1 | 5.05 | 16.7 | 5060 | 18.7 | 2760 | 9.28 | 1780 | 4.13 | 12.6 | 28.8 | 3.71 | 18.2 | 3200 | 14.5 | 1680 | 3.42 | 17 | 31 | 1.71 | 3.24
Cc1ccc(S(=O)(=O)N2CCc3ccc(O)c4c3C2Cc2ccc3c(c2-4)OCO3)cc1 (centres undefined) | 1.56 | 5.24 | 417 | 3.51 | 708 | 14.2 | 635 | 4.68 | 3.19 | 45.8 | 1.41 | 20.7 | 853 | 5.96 | 429 | > 42.9 | 3.48 | 29.2 | 0.577 | 9.41
